# Where two headings read alike, the source gives them in different places.
# What was measured:
# [1] = tested on: set of clinically relevant bacteria (ESKAPE panel and one mycobacterial strain); assay: Antibacterial assay (MIC), whole strain panel; assay type: cell-based; conditions: highest concentration tested
# Experimental: (§1) The minimal inhibitory concentration (MIC) was determined as described previously in cation-adjusted Mueller-Hinton medium according to the standards and guidelines of the Clinical and Laboratory Standards Institute. […] After an overnight incubation at 37 °C, the MIC was read as the lowest compound concentration preventing visible bacterial growth. The strain panel included representative species of nosocomial pathogens, known as “[…]” bacteria. Specifically, the following strains were used: Enterococcus faecium BM 4147-1, Staphylococcus aureus ATCC 29213, Klebsiella pneumoniae ATCC 12657, Acinetobacter baumannii 09987, Pseudomonas aeruginosa ATCC 27853, and Enterobacter aerogenes ATCC 13048. Bacillus subtilis 168, Escherichia coli ATCC 25922, and Mycobacterium smegmatis mc^2 155 ATCC 700084 were used as further reference strains.
# S. aureus ATCC29213 = assay: Antibacterial assay (MIC); assay type: cell-based; conditions: Staphylococcus aureus
# Experimental: as §1
# K. pneumoniae ATCC12657 = assay: Antibacterial assay (MIC); assay type: cell-based; conditions: Klebsiella pneumoniae
# Experimental: as §1
# A. baumannii 09987 = assay: Antibacterial assay (MIC); assay type: cell-based; conditions: Acinetobacter baumannii
# Experimental: as §1
# E. faecium BM4147-1 = assay: Antibacterial assay (MIC); assay type: cell-based; conditions: Enterococcus faecium, BM41471
# Experimental: as §1
# P. aeruginosa ATCC27853 = assay: Antibacterial assay (MIC); assay type: cell-based; conditions: Pseudomonas aeruginosa
# Experimental: as §1
# B. subtilis 168 = assay: Antibacterial assay (MIC); assay type: cell-based; conditions: Bacillus subtilis
# Experimental: as §1
# E. coli ATCC25922 = assay: Antibacterial assay (MIC); assay type: cell-based; conditions: Escherichia coli
# Experimental: as §1
# [2] = tested on: L. donovani strain MHOM/ET/67/L82 axenic amastigotes; assay: Activity against L. donovani axenic amastigotes (resazurin); assay type: cell-based, Leishmania donovani; conditions: Leishmania donovani, in vitro, Table 2 values are means of two independent assays
# Experimental: Activity against L. donovani axenic amastigotes. Amastigotes of L. donovani strain MHOM/ET/67/L82 were grown in axenic culture at 37 °C in SM medium at pH 5.4 supplemented with 10% heat-inactivated fetal bovine serum under an atmosphere of 5% CO2 in air. 100 µL of culture medium with 10^5 amastigotes from axenic culture with or without a serial drug dilution were seeded in 96-well microtiter plates. Serial drug dilutions ranged from 100 to 0.002 μg/mL. After 70 h of incubation, the plates were inspected under an inverted microscope to assure growth of the controls and sterile conditions.
# [3] = tested on: Litomosoides sigmodontis adult female worms; assay: Anthelmintic assay, motility of adult filariae cultured in vitro; assay type: cell-based; conditions: 0.1, 1 and 10 µM; scale 0 (immotile) to 2 (maximum motility); 2.0 in media controls
# Experimental: To investigate the activity against filarial nematodes, adult female worms of the rodent filarial nematode Litomosoides sigmodontis were cultured in vitro with a 0.1, 1 and 10 µM concentration of 1. Motility of adult filariae as well as reduction of Wolbachia endosymbionts were assessed. […] L. sigmodontis adult female worms were isolated from chronically infected cotton rats (UKB). Three L. sigmodontis female adult worms per condition were cultured in supplemented Minimal Essential Medium (MEM) on a LLCMK2 cell layer, as previously described. […] Candidate 1 was tested at concentrations of 0.1, 1 and 10 µM. Filarial viability was assessed by determining the mean worm motility scores on a scale of 0 (immotile) to 2 (maximum motility) before drug addition and at 1 h, 1 day, 2 day, 4 day, 6 day, 8 day, 10 day, 12 day and 14 day post drug addition. The drug-containing media was renewed every other day. Depletion of Wolbachia endosymbionts from female adult worms was analyzed after two weeks of in vitro culture and determined as previously described using primers for the single copy gene Wolbachia ftsZ.
# [4] = tested on: Human Cytomegalovirus (HCMV); assay type: cell-based; conditions: up to the highest concentration tested (10 µM), HFF cells
# [5] = tested on: P. falciparum NF54 strain; assay: In vitro activity against erythrocytic stages of P. falciparum (3H-hypoxanthine incorporation assay); assay type: cell-based; conditions: Plasmodium falciparum, Table 2 values are means of two independent assays
# Experimental: Activity against P. falciparum. In vitro activity against erythrocytic stages of P. falciparum was determined using a ^3H-hypoxanthine incorporation assay against the drug-sensitive NF54 strain [76]. Compounds were dissolved in DMSO at 10 mg/mL and further diluted in medium before being added to parasite cultures incubated in RPMI 1640 medium without hypoxanthine, supplemented with HEPES (5.94 g/L), NaHCO3 (2.1 g/L), neomycin (100 U/mL), Albumax^R (5 g/L) and washed human red cells A^+ at 2.5% haematocrit (0.3% parasitaemia). Serial drug dilutions ranged from 100 to 0.002 μg/mL. The 96-well plates were incubated in a humidified atmosphere at 37 °C; 4% CO2, 3% O2, 93% N2. After 48 h 50 μL of ^3H-hypoxanthine (=0.5 μCi) was added to each well of the plate. The plates were incubated for a further 24 h under the same conditions. The plates were then harvested with a Betaplate™ cell harvester (Wallac, Zurich, Switzerland) and the red blood cells were transferred onto a glass fiber filter then washed with distilled water. The dried filters were inserted into a plastic foil with 10 mL of scintillation fluid and counted in a Betaplate™ liquid scintillation counter (Wallac, Zurich, Switzerland). IC50 values were calculated from sigmoidal inhibition curves by linear regression using Microsoft Excel. Chloroquine diphosphate (Sigma C6628) was used as control (IC50 0.006 ± 0.002 μM).
# [6] = tested on: Trypanosoma brucei rhodesiense STIB900; assay: Activity against Trypanosoma brucei rhodesiense STIB900 (resazurin); conditions: Table 2 values are means of two independent assays
# Experimental: Activity against Trypanosoma brucei rhodesiense STIB900. […] Minimum Essential Medium (50 µL) supplemented with 25 mM HEPES, 1 g/L additional glucose, 1% MEM non-essential amino acids (100×), 0.2 mM 2-mercaptoethanol, 1 mM Na-pyruvate and 15% heat inactivated horse serum was added to each well of a 96-well microtiter plate. Serial drug dilutions ranging from 100 to 0.002 μg/mL were prepared. Then, 4 × 10^3 bloodstream forms of T. b. rhodesiense STIB 900 in 50 µL were added to each well and the plate was incubated at 37 °C under a 5% CO2 atmosphere for 70 h. 10 µL of a resazurin solution (resazurin, 12.5 mg in 100 mL double-distilled water) was then added to each well and incubation continued for a further 2–4 h [70]. The plates were read with a Spectramax Gemini XS microplate fluorometer (Molecular Devices Cooperation, Sunnyvale, CA, USA) using an excitation wavelength of 536 nm and an emission wavelength of 588 nm. Data were analyzed using Softmax Pro (Molecular Devices Cooperation, Sunnyvale, CA, USA), which calculated IC50 values by linear regression [71] and 4-parameter logistic regression from the sigmoidal dose inhibition curves.
# M. smegmatis mc2 155 = assay: Antibacterial assay (MIC); assay type: cell-based, Mycobacterium smegmatis; conditions: Mycolicibacterium smegmatis, MC2155
# Experimental: as §1
# [7] = tested on: T. cruzi Tulahuen strain C2C4; assay: Activity against T. cruzi in L-6 cells (beta-galactosidase/CPRG); assay type: cell-based, Trypanosoma cruzi; conditions: in vitro, Tulahuen C2C4 in L-6 cells, Table 2 values are means of two independent assays
# Experimental: Activity against T. cruzi. Rat skeletal myoblasts (L-6 cells) were seeded in 96-well microtiter plates at 2000 cells/well in 100 μL RPMI 1640 medium with 10% FBS and 2 mM L-glutamine. After 24 h, the media in each well was removed and replaced with 100 μL of fresh media containing 5000 trypomastigote forms of T. cruzi Tulahuen strain C2C4 containing the β-galactosidase (lacZ) gene. After 48 h, the media was removed from the wells again, and this time, replaced by 100 μL fresh medium with or without 1 from 100 to 0.002 μg/mL. After 96 h of incubation, the plates were inspected under an inverted microscope to assess growth and sterility of the controls. Then, the substrate CPRG/Nonidet (50 μL) was added to all wells. A color reaction developed within 2–6 h and could be read photometrically at 540 nm.
smiles,measurement,setting,value
"CC1=C[C@@H](/C=C(\C)CCCc2ccoc2)[C@]2(OC(=O)C(C)=C2O)[C@@H]2[C@@H](C)CC[C@@H]12 [compound 1, Ircinianin]",MIC,[1],> 32 µg/mL
same,MIC,S. aureus ATCC29213,> 32 µg/mL
same,MIC,K. pneumoniae ATCC12657,> 32 µg/mL
same,MIC,A. baumannii 09987,> 32 µg/mL
same,MIC,E. faecium BM4147-1,> 32 µg/mL
same,MIC,P. aeruginosa ATCC27853,> 32 µg/mL
same,MIC,B. subtilis 168,> 32 µg/mL
same,MIC,E. coli ATCC25922,> 32 µg/mL
same,IC50,[2],16.6 µM
same,motility score,[3],1.7–1.8
same,Inhibition of HCMV infection,[4],no inhibition
same,IC50,[5],25.4 µM
same,IC50,"[6]; Trypanosoma brucei, RHODESIENSE|STIB900, read-out: IC50 T. brucei rhodesiense, in vitro, STIB900 bloodstream forms",> 80 µM
same,IC50,"[6]; read-out: IC50 T. brucei rhodesiense, in vitro, STIB900 bloodstream forms, listed as Ircinianin (1)",82.8 µM
same,MIC,M. smegmatis mc2 155,> 32 µg/mL
same,IC50,[7],> 80 µM
same,IC50,[7]; listed as Ircinianin (1),191 µM
